For assay [1], the system named is HEK293 cells cotransfected with the FOP control vector. The assay can be described thus: HEK293 FOP assay (control reporter with non-functional TCF elements). Format: cell-based. Particulars: Homo sapiens, 16 hours. How it is done: In a parallel approach, HEK293 cells were cotransfected with the FOP control vector and pcDNA3. The FOP vector is identical to the TOP construct, but it contains instead of functional TCF elements a randomized, non-functional sequence. For this transfection a stable transfected cell line was generated as well, based on selection with Geneticin (1 mg/ml).
(§1) In preparation of the assay, the two cell lines were plated 24 h before beginning the test at 10000 cells per well in a 384 micro titre plate (MTP) in 30 μl growth medium. […] The recombinant human Wnt-3a was thereby applied between 2500 and 5 ng/ml in two-fold dilution steps.
(§2) Selective inhibitory activity for small molecules on the wildtype Wnt pathway was determined after parallel incubation of both (TOP and FOP) HEK293 reporter cell lines with a compound dilution series from 50 μM to 15 nM in steps of 3.16-fold dilutions in CAFTY buffer (130 mM sodium chloride, 5 mM potassium chloride, 20 mM HEPES, 1 mM magnesium chloride, 5 mM sodium bicarbonate, pH 7.4) containing 2 mM Ca^2+ and 0.01% BSA.
(§3) The compounds were thereby serially prediluted in 100% DMSO and thereafter 50 fold into the CAFTY compound dilution buffer (described above).

The target of assay [2] is T1, TNKS2 (Homo sapiens, UniProt Q9H2K2).
T1 construct: purchased BPS Bioscience, San Diego, USA 80572 (TNKS2 Histone Ribosylation Assay Kit)
T1 sequence (Q9H2K2 1-1166): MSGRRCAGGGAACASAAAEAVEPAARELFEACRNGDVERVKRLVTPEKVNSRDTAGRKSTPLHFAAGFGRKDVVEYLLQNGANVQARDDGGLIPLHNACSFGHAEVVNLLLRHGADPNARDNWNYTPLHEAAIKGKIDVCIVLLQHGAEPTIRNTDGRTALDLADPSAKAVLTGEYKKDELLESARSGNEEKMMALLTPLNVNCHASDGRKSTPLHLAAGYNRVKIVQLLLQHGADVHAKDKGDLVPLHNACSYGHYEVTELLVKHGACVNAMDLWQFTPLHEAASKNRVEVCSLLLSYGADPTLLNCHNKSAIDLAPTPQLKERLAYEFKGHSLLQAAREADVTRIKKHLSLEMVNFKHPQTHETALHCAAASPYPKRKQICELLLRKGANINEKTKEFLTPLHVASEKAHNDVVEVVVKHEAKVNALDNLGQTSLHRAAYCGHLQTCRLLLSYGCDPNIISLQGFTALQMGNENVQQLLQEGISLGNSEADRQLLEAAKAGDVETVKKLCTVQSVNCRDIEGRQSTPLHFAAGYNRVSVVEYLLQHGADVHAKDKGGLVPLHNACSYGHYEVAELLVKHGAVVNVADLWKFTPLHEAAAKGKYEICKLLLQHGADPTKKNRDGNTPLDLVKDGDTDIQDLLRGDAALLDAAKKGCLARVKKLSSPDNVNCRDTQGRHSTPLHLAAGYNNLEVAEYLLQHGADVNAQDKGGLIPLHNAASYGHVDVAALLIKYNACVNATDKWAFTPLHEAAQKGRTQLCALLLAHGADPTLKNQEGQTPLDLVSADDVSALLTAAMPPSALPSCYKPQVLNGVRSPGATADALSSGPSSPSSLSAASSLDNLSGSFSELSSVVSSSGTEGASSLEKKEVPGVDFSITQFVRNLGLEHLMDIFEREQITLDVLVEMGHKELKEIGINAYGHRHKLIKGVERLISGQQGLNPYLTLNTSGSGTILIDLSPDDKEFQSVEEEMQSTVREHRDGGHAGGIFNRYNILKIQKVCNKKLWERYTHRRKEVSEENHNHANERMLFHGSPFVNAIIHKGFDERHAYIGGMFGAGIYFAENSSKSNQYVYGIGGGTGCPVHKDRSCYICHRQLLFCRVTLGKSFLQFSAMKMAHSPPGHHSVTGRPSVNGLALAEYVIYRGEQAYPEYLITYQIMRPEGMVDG
Description: TNKS2 Assay B (auto-parsylation, [3H]-NAD+ SPA). Particulars: 6 nM TNKS2, auto-parsylation, over night at room temperature. It is filed as biochemical. How it is done: The potency of selected compounds according to the invention was assessed applying a modified in vitro inhibition assay. Here, the TNKS2 catalyzed NAD^+-dependent ribosylation of the enzyme itself (auto-parsylation) was detected using [^3H]-NAD^+ as substrate and applying the scintillation proximity assay (SPA) method to detect tritium-labeled, parsylated TNKS2. The intensity of the readout signal is proportional to the incorporated [^3H]-NAD^+. Inhibition of TNKS2 leads to a decreased incorporation of [^3H]-NAD^+ and consequently to a lower readout signal intensity. The concentration of a test compound which inhibits the enzyme activity by 50% (corresponds to half of the normed readout signal intensity) is reported as IC50.
Protocol Auto-Parsylation Assay
The assay was conducted in a 96 well MTP format with the identical TNKS2 enzyme sample and NAD^+ sample as in the histone ribosylation assay with the following modifications: TNKS2 enzyme sample was diluted with a modified assay buffer (50 mM MES pH 7.0, 1 mM DTT, 0.01% Triton X-100) to a final concentration of 6 nM TNKS2 and 10×NAD^+ solution was diluted with the modified assay buffer (s. above) to a final 0.445×NAD^+ solution doped with 100 Bq/μl [^3H]-NAD^+[Catalog #NET443H050UC, Perkin Elmer, Waltham, Mass., USA]. Substrate solution (10 μl) was incubated with different test compound concentrations (2.5 μl in 10% DMSO in modified assay buffer) or control (2.5 μl 10% DMSO in modified assay buffer only) and enzyme (10 μl) over night at room temperature. Incorporated tritium was measured after addition of 50 ul SPA beads (1 mg/ml) [Catalog #RPNQ0095 20 mg/ml, Perkin Elmer, Waltham, Mass., USA; diluted 1:10 with Dulbecco's phosphate buffered saline, PBS Catalog #D8537, Sigma-Aldrich, Steinheim, Germany] and detection of the photon emission with a beta count plate reader [Wallac MicroBeta®, Perkin Elmer, Waltham, Mass., USA].

In assay [3] the test system is wildtype Wnt signaling cascade. Description: HEK293 TOP assay (Super TopFlash luciferase reporter, Wnt-3a stimulated). It is filed as cell-based. The note with it: Homo sapiens, HEK293, 16 h, HEK293 TOP reporter cells, Wnt3a at EC50, 16 hours.
Source text: 7.1 Measurement of the Inhibitory Activity of Selected Compounds on the Wildtype Wnt Signaling Cascade: HEK293 TOP/FOP Assay
In order to discover and characterize small molecules which inhibit the wildtype Wnt pathway, a cellular reporter assay was employed. The corresponding assay cell was generated by transfection of the mammalian cell line HEK293 (ATCC, #CRL-1573) with the Super TopFlash vector (Morin, Science 275, 1997, 1787-1790; Molenaar et al., Cell 86 (3), 1996, 391-399). The HEK293 cell line is cultivated at 37° C. and 5% CO2 in DMEM (Life Technologies, #41965-039), supplemented with 2 mM glutamine, 20 mM HEPES, 1.4 mM pyruvate, 0.15% Na-bicarbonate and 10% foetal bovine serum (GIBCO, #10270). Stable transfectants were generated by selection with 300 μg/ml Hygromycin.
as §1, §2, §3

The structures appear in SMILES notation.

In the case of `COCc1cc(C)n2ncc(C(=O)N[C@H]3CC[C@@]4(CCN(c5ccc(F)cc5Cl)C4=O)CC3)c2n1` [Example 220, N-[(trans)-2-(2-chloro-4-fluorophenyl)-1-oxo-2-azaspiro[4.5]dec-8-yl]-5-(methoxymethyl)-7-methylpyrazolo[1,5-a]pyrimidine-3-carboxamide], the values for the IC50 in assay [1], in assay [2] and in assay [3] were 38000 nM, 10 nM and 2.6 nM, respectively.
For `O=C(N[C@H]1CC[C@@]2(CCN(c3ccc(F)cc3Cl)C2=O)CC1)c1cnc2ccccn12` [Example 223, N-[(trans)-2-(2-chloro-4-fluorophenyl)-1-oxo-2-azaspiro[4.5]dec-8-yl]imidazo[1,2-a]pyridine-3-carboxamide], in that order: not below 50000 nM, 1200 nM and 270 nM.
Consider `Cc1cc(C)n2nc(C)c(C(=O)N[C@H]3CC[C@@]4(CCN(c5ccc(F)cc5Cl)C4=O)CC3)c2n1` [Example 227, N-[(trans)-2-(2-chloro-4-fluorophenyl)-1-oxo-2-azaspiro[4.5]dec-8-yl]-2,5,7-trimethylpyrazolo[1,5-a]pyrimidine-3-carboxamide], for which the figures for the IC50 in assay [1], in assay [2] and in assay [3] were not below 50000 nM, 150 nM and 88 nM, respectively.
For `O=C(N[C@H]1CC[C@@]2(CCN(c3ccc(F)cc3Cl)C2=O)CC1)c1n[nH]c2cccnc12` [Example 228, N-[(trans)-2-(2-chloro-4-fluorophenyl)-1-oxo-2-azaspiro[4.5]dec-8-yl]-1H-pyrazolo[4,3-b]pyridine-3-carboxamide], in that order: not below 500 nM, 420 nM and 60 nM.
Consider `O=C(N[C@H]1CC[C@@]2(CCN(c3ccc(F)cc3Cl)C2=O)CC1)c1cnn2ccccc12` [Example 230, N-[(trans)-2-(2-chloro-4-fluorophenyl)-1-oxo-2-azaspiro[4.5]dec-8-yl]pyrazolo[1,5-a]pyridine-3-carboxamide], for which the IC50 – broadly, the concentration needed to halve the response being measured – is not below 500 nM in assay [1], 280 nM in assay [2] and 30 nM in assay [3].
For `O=C(N[C@H]1CC[C@@]2(CCN(c3ccc(F)cc3Cl)C2=O)CC1)c1cnn2ccc(N3CCOCC3)nc12` [Example 231, N-[(trans)-2-(2-chloro-4-fluorophenyl)-1-oxo-2-azaspiro[4.5]dec-8-yl]-5-(morpholin-4-yl)pyrazolo[1,5-a]pyrimidine-3-carboxamide], in that order: not below 500 nM, 3.8 nM and 8 nM.
For `O=C(N[C@H]1CC[C@@]2(CCN(c3ccc(F)cc3Cl)C2=O)CC1)c1cnn2ccc(O)nc12` [Example 234, N-[(trans)-2-(2-chloro-4-fluorophenyl)-1-oxo-2-azaspiro[4.5]dec-8-yl]-5-hydroxypyrazolo[1,5-a]pyrimidine-3-carboxamide], in that order: not below 50000 nM, 210 nM and 590 nM.
For `O=C(N[C@H]1CC[C@@]2(CCN(c3ccc(F)cc3Cl)C2=O)CC1)c1cnn2c(O)ccnc12` [Example 235, N-[(trans)-2-(2-chloro-4-fluorophenyl)-1-oxo-2-azaspiro[4.5]dec-8-yl]-7-hydroxypyrazolo[1,5-a]pyrimidine-3-carboxamide], in that order: not below 500 nM, 29 nM and 230 nM.
Take `O=C(N[C@H]1CC[C@@]2(CCN(c3ccc(F)cc3Cl)C2=O)CC1)c1c[nH]c2cccnc12` [Example 236, N-[(trans)-2-(2-chloro-4-fluorophenyl)-1-oxo-2-azaspiro[4.5]dec-8-yl]-1H-pyrrolo[3,2-b]pyridine-3-carboxamide]: the concentration for half-maximal inhibition (IC50) in assay [1] is not below 50000 nM; in assay [2] it was 19 nM; in assay [3], 350 nM.
For `COCCc1cnc2c(C(=O)N[C@H]3CC[C@@]4(CCN(c5ccc(F)cc5Cl)C4=O)CC3)cnn2c1` [Example 237, N-[(trans)-2-(2-chloro-4-fluorophenyl)-1-oxo-2-azaspiro[4.5]dec-8-yl]-6-(2-methoxyethyl)pyrazolo[1,5-a]pyrimidine-3-carboxamide], in that order: not below 50000 nM, 8.9 nM and 0.14 nM.
For `O=C(N[C@H]1CC[C@@]2(CCN(c3ccccc3)C2=O)CC1)c1cnn2cccnc12` [Example 238, N-[(trans)-1-oxo-2-phenyl-2-azaspiro[4.5]dec-8-yl]pyrazolo[1,5-a]pyrimidine-3-carboxamide], in that order: not below 500 nM, 400 nM and 43 nM.
On the same counts, the results for `Cc1cc(C)n2ncc(C(=O)N[C@H]3CC[C@@]4(CCN(c5ccccc5)C4=O)CC3)c2n1` [Example 239, 5,7-dimethyl-N-[(trans)-1-oxo-2-phenyl-2-azaspiro[4.5]dec-8-yl]pyrazolo[1,5-a]pyrimidine-3-carboxamide] are not below 500 nM, 570 nM and 73 nM.
As to `O=C(N[C@H]1CC[C@@]2(CCN(c3ccccc3)C2=O)CC1)c1cnc2cccnn12` [Example 240, N-[(trans)-1-oxo-2-phenyl-2-azaspiro[4.5]dec-8-yl]imidazo[1,2-b]pyridazine-3-carboxamide], the IC50 in assay [1] was not below 500 nM; in assay [2] it was 510 nM; in assay [3] it was 29 nM.
